Assay results as given in patent publication US20070161547A1, “Modulation of survivin expression” (priority 2003, published 2007).
pIC50: −log10 of the molar value. Where two headings read alike, the source gives them in different places.

Tested on: human survivin mRNA
Assay: IC50 of dsRNA for survivin mRNA, dose response by quantitative RT-PCR ("D")
Assay type: cell-based
Conditions: D (dose response, mRNA levels), read-out: IC50
Experimental: Representative parameters that can be studied include, for example, translation of survivin mRNAs or survivin protein synthesis; effect on surrogate markers; or any other parameter that is indicative of potential dsRNA therapeutic effectiveness that can be conveniently measured in vitro.
For western blot analysis, cells are plated in 10 cm tissue culture dishes (Falcon, #3003) at a density of 7.5×10^5 cells/dish. For RT-PCR analysis, 96-well plates (Corning Incorporated, #3596) are plated with 1×10^4 cells/well. Lipofectin (GIBCO/Invitrogen) transfection reagent is used at a concentration of 3 ul/ml OPTIMEM reduced serum medium (Gibco/Invitrogen)/100 nM siRNA duplex. Lipofectin reagent is incubated with OPTIMEM medium for 30 minutes prior to the addition of siRNA. The desired amount of siRNA is added and mixed. Further 1:1 dilutions are performed in OPTIMEM. Cells are washed twice with 1× phosphate buffered saline and then treated with the siRNA/Lipofectin mixture in OPTIMEM. After a 4 hr incubation period, OPTIMEM medium is replaced with complete growth medium. Cells are harvested after additional 16-20 hrs for Western blot or RT-PCR analysis.
Total RNA is isolated using RNeasy® 96 kit according to recommended protocol (Qiagen). Briefly, cells are washed with 200 ul PBS after removal of growth medium. Following washing, 100 μl buffer RLT is added, plate is shaken vigorously for about 20 seconds. To each well 100 μl 70% ethanol are added and mixed by pipetting up and down three times. Samples are then applied into the wells of the RNeasy 96 plate placed in the QIAvac top base of the QIAvac 96 manifold, which is attached to a vacuum source. Vacuum is applied for 30 seconds or until transfer is complete. To each well 80 μl of DNase I incubation mix (20 mM Tris-HCl, pH 8.4, 2 mM MgCl2, 50 mM KCl and 225 Units/ml DNase I from Invitrogen) is added and incubated at room temperature for 30 minutes. Buffer RW1 (1 ml/well) is added and the vacuum is applied for 30 seconds. Buffer RPE (1 ml/well) is added to each well and vacuum is applied for 30 seconds. Washing steps with buffer RW1 and RPE1 are repeated once more. The plate is then removed from the manifold and blotted dry on paper towels. The plate is placed back in the QIAvac manifold and the vacuum is applied for 10 minutes. To elute RNA 30 μl of RNase-free water is added directly onto the membrane of each well, incubated for 1 minutes and vacuum is applied for 30 seconds. In order to maximize the recovery of total RNA the elution step is repeated with additional 30 μl/well RNase-free water.
Quantitation of survivin and GAPDH mRNA levels is determined by real-time quantitative RT-PCR using the ABI PRISM® 7900 Sequence Detection System (Applied Biosystems). RT-PCR reactions are carried out by adding 15 ul of TaqMan One Step PCR Master Mix (Applied Biosystems, #4309169) reagents (containing 100 nM each of forward primer and reverse primer, and 200 nM probe) to 96-well plates with 10 μl total RNA. For human survivin, the forward PCR primer is: 5′[…]3′ (SEQ ID NO: 186), and the reverse primer is: 5′[…]3′ (SEQ ID NO: 187). The survivin TaqMan® probe used is 5′(FAM)[…]3′ (SEQ ID NO: 188) (Biosearch Technologies, Inc.). This primer-probe set, designed to SEQ ID No 14 was used for all experiments in Examples 15 to the end. For human GAPDH, TaqMan GAPDH Control Reagent Kit is used (Applied Biosystems, #402869). The percentage inhibition for each samples are calculated by comparing the survivin/GAPDH mRNA ratio for the sample to survivin/GAPDH mRNA ratio for the untreated control. The IC50 is derived from the non-linear regression analysis of the percentage inhibition data using GraphPad Prism software (GraphPad Software).
The constructs tested comprise the antisense strand in the 5′-3′ orientation, and the sense strand in the 5′ to 3′ orientation, In Table 15, “D” is dose response (mRNA levels) and “W” is Western blot. […]

Substance | pIC50 (HeLa cells) | pIC50 (U-87 MG cells)
339058_339088 (antisense AACAAAAUAAGAAAGCCAUG; sense CAUGGCUUUCUUAUUUUGUU; siRNA; unmodified RNA) | 8.53 | –
339052_339082 (antisense GCAAAAGGGACACUGCCUUC; sense GAAGGCAGUGUCCCUUUUGC; siRNA; unmodified RNA) | 8.62 | 8.94
339048_339078 (antisense AUUUGAAAAUGUUGAUCUCC; sense GGAGAUCAACAUUUUCAAAU; siRNA; unmodified RNA) | – | 9.47
339060_339090 (antisense AGUUUGUGCUAUUCUGUGAA; sense UUCACAGAAUAGCACAAACU; siRNA; unmodified RNA) | 8.47 | –
339045_339075 (antisense AUCCAUGGCAGCCAGCUGCU; sense AGCAGCUGGCUGCCAUGGAU; siRNA; unmodified RNA) | 8.48 | 9.17
339056_339086 (antisense UAAGGAACCUGCAGCUCAGA; sense UCUGAGCUGCAGGUUCCUUA; siRNA; unmodified RNA) | 8.76 | 9.29
